According to patent publication US8648116B2, “Derivatives of N-(arylamino) sulfonamides including polymorphs as inhibitors of MEK as well as compositions, methods of use and methods for preparing the same” (Ardea Biosciences, Inc., priority 2005, dated 2014):
Read-outs that look alike come from different tables or passages of the source.

Tests used:
human hepatocytes = assay: Primary hepatocyte toxicity (AK release, ATP, 48 hr); format: cell-based
Procedure: Plated human hepatocytes were obtained from CellzDirect and processed according to manufacturer's instructions.
(§1) After 48 hr, supernatant AK levels were determined using Toxilight, and cellular ATP levels were determined using CellTiterGlo. Full kill values were determined using 15 μM VRX-14686.

Colo205 cells = assay: Anchorage-independent growth inhibition (MTS, 7 days); format: cell-based, human
Procedure: Wells of an “ultra low binding” plate (Corning, Acton Mass.) were filled with 60 μl of a 0.15% agarose solution in complete RPMI. Then, 60 μl complete RPMI containing 9000 Colo205 cells in 0.15% agarose was added per well. After 24 hr, 60 μl of a 3× drug solution in agarose free complete RPMI was added. After 7 days, 36 μl 6×MTS reagent (CellTiter 96 Aqueous, Promega, Madison, Wis.) was added per well. After 2 hr at 37° C., absorbance at 490 nm was determined on the M5 plate reader (Molecular Devices, Sunnyvale, Calif.).
Viability was determined by MTS assay.

[1] = tested on: orthotopic Hep3B2.1-7 human hepatic carcinoma; assay: Growth response of orthotopic Hep3B tumors in nude mice; format: in vivo, BALB/c nu/nu mice
Procedure: Female BALB/c nu/nu mice (University of Adelaide, Waite Campus, SA, Australia), aged 10-14 weeks, with a body weight range: of 19.1-29.94 g (mean 22.95 g) were used for the study. The mice were divided into 6 Study groups (4 treatment groups and 2 control groups) as follows: • Number of Mice per Group: 10 in Groups 1 to 5 inclusive • 15 in ‘Take-Rate’ Control Group (Group 6)
Hep3B human hepatic carcinoma cells (Passage 2 from working stock VP-Stock 353) were cultured in RPMI1640 cell culture medium, which was supplemented with 10% FBS and penicillin-streptomycin (501 U/mL final concentration). The cells were harvested by trypsinisation, washed twice in HBSS and counted. The cells were then resuspended in HBSS:Matrigel (1:1, v/v) and adjusted to a final volume containing 1×10^8 cells/mL. Prior to inoculation, the incision site was liberally swabbed with alcohol and an incision made through the abdominal wall to expose the liver. The needle was introduced through the surface of the liver where 10 μL of cells (1×10^6 cells) were discharged. The needle was held in this position for approximately 30 seconds to allow the Matrigel® to polymerize in order to avoid leakage of tumor cells into the abdominal cavity.
Treatment commenced 14 days post-inoculation. On Day 7 of the study (21 days post-inoculation), all mice from the ‘Take-Rate’ control group were culled and the livers visually assessed for the presence of tumors.
A stock solution was prepared weekly and stored at 4° C. Dosing solutions were prepared on each day of administration. […] The compound was administered at doses of 2, 10 and 50 mg/kg.
Liver and tumor wet weight were measured when each were excised post-mortem on the termination day of the study. At the termination of the study, livers were excised from all mice in each study group and weighed. The number of visible tumors, if present, was counted. These tumors were removed from the liver and weighed.
A One-Way Analysis of Variance (ANOVA) (All Pairwise Multiple Comparison Procedure and Multiple Comparison versus Control Group) was performed on liver weight and tumor weight data at the end of the study. […] The same statistical analyses were performed on the data for the tumor-bearing mice in the study.

rat hepatocytes = assay: Primary hepatocyte toxicity (AK release, ATP, 48 hr); format: cell-based; conditions: rat hepatocytes
Procedure: Cryopreserved rat hepatocytes were obtained from CellzDirect (Austin, Tex.) and plated on collagen coated 96-well plates according to manufacturer's instructions. Drug was added 4 hr after plating (final DMSO concentration 0.5%).
as §1

[2] = tested on: human A375 melanoma xenografts
A375 cells = assay: Anchorage-independent growth inhibition (MTS, 7 days); format: cell-based, human
[3] = tested on: human renal proximal tubule epithelial cells (RPTEC); assay: Renal cell toxicity (AK release, ATP, 48 hr); format: cell-based
Procedure: Cryopreserved human renal proximal tubule epithelial cells (RPTEC) were obtained from Cambrex and were processed according to manufacturer's instructions. Cells were expanded for 4 days and then plated in 96-well plates at 50,000 cells/well for drug exposure.
as §1

[4] = Plasma concentrations in mice (Example 94F); format: in vivo, nu/nu mice; conditions: mouse efficacy model, typical range
A375 melanoma cells = assay: Anchorage-dependent growth inhibition (CellTiterGlo/ATP, 48 hr); format: cell-based, human; conditions: for GI50: ATP content
A431 epidermoid cells = assay: as above; conditions: read-out: Mean GI50; A431, 48 hr, ATP content, mean of at least three experiments
Procedure: (§2) Cells were maintained at 37° C., 5% CO2, and 100% humidity. Colo205 cells were maintained in RPMI supplemented with 10% fetal bovine serum, glutamine (2 mM), penicillin (100 U/ml), and streptomycin (100 μg/ml). For growth inhibition experiments, cells were plated in white 384-well microplates at 1000 cells/20 dwell. After 24 hr, 5 μl of a 5× drug stock solution was added. All drugs were initially prepared as 200× stocks in DMSO, such that final DMSO concentration was 0.5%. Cells were incubated for 48 hr at 37° C. and ATP levels were determined using CellTiterGlo (Promega, Madison, Wis.). […] Non-linear curve-fitting was performed using GraphPad Prism 4 (GraphPad Software, San Diego, Calif.).

[5] = tested on: Colo205 colon cancer cells; assay: as above; conditions: ATP content
Procedure: as §2

Q: With `COc1cc(F)c(F)c(Nc2ccc(I)cc2F)c1NS(=O)(=O)C1(C[C@H](O)CO)CC1` as the molecule, how does the survival (human hepatocytes; freshly plated primary human hepatocytes, 30 μM, 48 hr) read?
A: 81%

Q: And the cytotoxicity (human hepatocytes; primary normal human hepatocytes)?
A: little cytotoxicity

Q: What about the GI50 (Colo205 cells; Colo205, anchorage independent, read-out: Mean GI50) of the same molecule?
A: 40 nM

Q: And the GI50 (Colo205 cells; human colorectal carcinoma Colo205 cells, read-out: GI50, anchorage independent growth (FIG. 12A))?
A: 11 nM

Q: And the “liver and tumor weight” value ([1]; 2, 10 and 50 mg/kg p.o. once daily)?
A: dose-dependent trend in the decrease

Q: And the “average weight of the tumors vs Vehicle Control” value ([1]; tumor-bearing mice, 10 mg/kg p.o. once daily)?
A: significantly different

Q: What about the “average weight of the tumors vs Vehicle Control” value ([1]; tumor-bearing mice, 50 mg/kg p.o. once daily) of the same molecule?
A: significantly different

Q: And the “average weight of the liver vs Vehicle Control” value ([1]; tumor-bearing mice, 50 mg/kg p.o. once daily, p<0.05)?
A: significantly different

Q: What about the cytotoxicity (rat hepatocytes) of the same molecule?
A: little cytotoxicity

Q: And the “Median TTE” value ([2]; Group 3, 50 mg/kg po qd×14)?
A: 27.5 days

Q: And the PR ([2]; Group 3, 50 mg/kg po qd×14)?
A: A single animal

Q: And the TGD ([2]; Group 3, 50 mg/kg po qd×14)?
A: 21%

Q: What about the CR ([2]; Group 4, 25 mg/kg po bid×14) of the same molecule?
A: 5/9

Q: And the “Median TTE” value ([2]; Group 4, 25 mg/kg po bid×14)?
A: 59.9 days

Q: And the PR ([2]; Group 4, 25 mg/kg po bid×14)?
A: 4/9

Q: What about the TFS ([2]; Group 4, 25 mg/kg po bid×14) of the same molecule?
A: 4/9

Q: What about the TGD ([2]; Group 4, 25 mg/kg po bid×14, maximum possible) of the same molecule?
A: 163%

Q: And the “Median TTE” value ([2]; Group 5, 25 mg/kg po qd×14)?
A: 25.6 days

Q: And the tumor regressions ([2]; Group 5, 25 mg/kg po qd×14)?
A: no tumor regressions

Q: And the TGD ([2]; Group 5, 25 mg/kg po qd×14, non-significant)?
A: 12%

Q: What about the “Median TTE” value ([2]; Group 6, 12.5 mg/kg po bid×14) of the same molecule?
A: 27.5 days

Q: What about the PR ([2]; Group 6, 12.5 mg/kg po bid×14) of the same molecule?
A: a single PR response

Q: And the TGD ([2]; Group 6, 12.5 mg/kg po bid×14)?
A: 21%

Q: And the GI50 (A375 cells; A375, anchorage independent, read-out: Mean GI50)?
A: 84 nM

Q: And the GI50 (A375 cells; A375 cells, read-out: GI50, anchorage independent growth (FIG. 12B))?
A: 22 nM

Q: And the “ATP depletion and cell lysis” value ([3]; RPTEC cells, 48 hr, cell lysis at 30 W (so in the source))?
A: dose dependent ATP depletion and evident cell lysis

Q: And the cytotoxicity ([3]; human renal proximal tubule epithelial cells)?
A: little cytotoxicity

Q: And the half-life [4]?
A: 2 to 3 h

Q: What about the GI50 (A375 melanoma cells; A375, 48 hr, mean of at least three experiments, read-out: Mean GI50) of the same molecule?
A: 71 nM

Q: What about the GI50 (A375 melanoma cells; A375, separate study, 48 hr, read-out: GI50) of the same molecule?
A: 56 nM

Q: And the “ATP, Cell viability, % Control” value (A375 melanoma cells; A375 cells, 1 uM, 48 hr)?
A: 27%

Q: What about the GI50 (A431 epidermoid cells) of the same molecule?
A: 86 nM

Q: What about the GI50 ([5]; Colo205, separate study, 48 hr) of the same molecule?
A: 27 nM

Q: What about the GI50 ([5]; read-out: Mean GI50, Colo205, 48 hr, mean of at least three experiments) of the same molecule?
A: 89 nM
